Assay results: patent US7723329B2, “Substituted-3-sulfonylindazole derivatives as 5-hydroxytryptamine-6 ligands” (Wyeth LLC, priority 2005, dated 2010)

Each compound was assayed against T1, human cloned 5-HT6 receptors (Homo sapiens, UniProt P50406) (assay: 5-HT6 binding affinity, [3H]-LSD displacement). Conditions: membranes of Hela cells expressing human cloned 5-HT6 receptors; [3H]-LSD 3.0 nM; 120 minutes at room temperature.
T1 construct: expressed in transfected cells; host or cells: HeLa cells
T1 sequence (P50406 whole entry): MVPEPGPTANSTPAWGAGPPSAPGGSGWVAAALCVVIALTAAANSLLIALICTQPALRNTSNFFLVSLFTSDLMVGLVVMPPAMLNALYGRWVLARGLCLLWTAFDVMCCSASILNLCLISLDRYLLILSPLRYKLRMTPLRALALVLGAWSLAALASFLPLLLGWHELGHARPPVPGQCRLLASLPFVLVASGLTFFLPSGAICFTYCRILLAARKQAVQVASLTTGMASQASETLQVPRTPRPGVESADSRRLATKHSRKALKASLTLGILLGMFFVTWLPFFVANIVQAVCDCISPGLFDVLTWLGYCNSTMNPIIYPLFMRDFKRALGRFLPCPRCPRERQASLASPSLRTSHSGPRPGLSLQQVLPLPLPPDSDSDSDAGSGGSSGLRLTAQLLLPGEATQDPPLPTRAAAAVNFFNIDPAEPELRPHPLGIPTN
Method: The affinity of test compounds for the serotonin 5-HT6 receptor was evaluated in the following manner. Cultured Hela cells expressing human cloned 5-HT6 receptors were harvested and centrifuged at low speed (1,000×g) for 10.0 minutes to remove the culture media. The harvested cells were suspended in half volume of fresh physiological phosphate buffered saline solution and recentrifuged at the same speed. This operation was repeated. The collected cells were then homogenized in ten volumes of 50 mM Tris.HCl (pH 7.4) and 0.5 mM EDTA. The homogenate was centrifuged at 40,000×g for 30.0 min and the precipitate was collected. The obtained pellet was resuspended in 10 volumes of Tris.HCl buffer and recentrifuged at the same speed. The final pellet was suspended in a small volume of Tris.HCl buffer and the tissue protein content was determined in aliquots of 10-25 μl volumes. […] The volume of the suspended cell membranes was adjusted to give a tissue protein concentration of 1.0 mg/ml of suspension. The prepared membrane suspension (10 times concentrated) was aliquoted in 1.0 ml volumes and stored at −70° C. until used in subsequent binding experiments.
The bound complex caught on the filter disk was allowed to air dry and the radioactivity is measured in a Packard TopCount® equipped with six photomultiplier detectors, after the addition of 40.0 μl Microscint®-20 scintillant to each shallow well. The unifilter plate was heat-sealed and counted in a PackardTopCount® with a tritium efficiency of 31.0%.
Specific binding to the 5-HT6 receptor was defined as the total radioactivity bound less the amount bound in the presence of 10.0 μM unlabeled methiothepin. Binding in the presence of varying concentrations of test compound was expressed as a percentage of specific binding in the absence of test compound. The results were plotted as log % bound versus log concentration of test compound. […] A linear regression line of data points was plotted, from which the IC50 value is determined and the Ki value is determined based upon the following equation: Ki=IC50/(1+L/KD) where L was the concentration of the radioactive ligand used and KD is the dissociation constant of the ligand for the receptor, both expressed in nM.

Row | Ki [nM] | SMILES
1 | 0.01 to 10 | O=S(=O)(c1cccc2ccccc12)c1n[nH]c2ccc(OCCNC3CC3)cc12 [Example 36, Cyclopropyl-{2-[3-(naphthalene-1-sulfonyl)-1H-indazol-5-yloxy]-ethyl}-amine]
2 | 0.01 to 10 | O=S(=O)(c1cccc2ccccc12)c1n[nH]c2ccc(OCCN3CCCC3)cc12 [Example 37, 3-(Naphthalene-1-sulfonyl)-5-(2-pyrrolidin-1-yl-ethoxy)-1H-indazole]
3 | 0.01 to 10 | O=S(=O)(c1cccc2ccccc12)c1n[nH]c2ccc(OCCN3CCCCC3)cc12 [Example 38, 3-(Naphthalene-1-sulfonyl)-5-(2-piperidin-1-yl-ethoxy)-1H-indazole]
4 | 11 to 25 | O=S(=O)(c1cccc2ccccc12)c1n[nH]c2ccc(OCCN3CCOCC3)cc12 [Example 39, 5-(2-Morpholin-4-yl-ethoxy)-3-(naphthalene-1-sulfonyl)-1H-indazole]
5 | 0.01 to 10 | CNCCOc1ccc2c(c1)c(S(=O)(=O)c1cccc3ccccc13)nn2C [Example 40, Methyl-{2-[1-methyl-3-(naphthalene-1-sulfonyl)-1H-indazol-5-yloxy]-ethyl}-amine]
6 | 0.01 to 10 | CN(C)CCOc1ccc2c(c1)c(S(=O)(=O)c1cccc3ccccc13)nn2C [Example 41, Dimethyl-{2-[1-methyl-3-(naphthalene-1-sulfonyl)-1H-indazol-5-yloxy]-ethyl}-amine]
7 | 0.01 to 10 | CCN(C)CCOc1ccc2c(c1)c(S(=O)(=O)c1cccc3ccccc13)nn2C [Example 42, Ethyl-methyl-{2-[1-methyl-3-(naphthalene-1-sulfonyl)-1H-indazol-5-yloxy]-ethyl}-amine]
8 | 0.01 to 10 | CCN(CC)CCOc1ccc2c(c1)c(S(=O)(=O)c1cccc3ccccc13)nn2C [Example 43, Diethyl-{2-[1-methyl-3-(naphthalene-1-sulfonyl)-1H-indazol-5-yloxy]-ethyl}-amine]
9 | 0.01 to 10 | CCNCCOc1ccc2c(c1)c(S(=O)(=O)c1cccc3ccccc13)nn2C [Example 44, Ethyl-{2-[1-methyl-3-(naphthalene-1-sulfonyl)-1H-indazol-5-yloxy]-ethyl}-amine]
10 | 0.01 to 10 | CC(C)NCCOc1ccc2c(c1)c(S(=O)(=O)c1cccc3ccccc13)nn2C [Example 45, Isopropyl-{2-[1-methyl-3-(naphthalene-1-sulfonyl)-1H-indazol-5-yloxy]-ethyl}-amine]
11 | 0.01 to 10 | Cn1nc(S(=O)(=O)c2cccc3ccccc23)c2cc(OCCN3CCCC3)ccc21 [Example 46, 1-Methyl-3-(naphthalene-1-sulfonyl)-5-(2-pyrrolidin-1-yl-ethoxy)-1H-indazole]
12 | 26 to 35 | CCN(C)CCOc1ccc2c(c1)c(S(=O)(=O)c1cccc3ccccc13)nn2Cc1ccccc1 [Example 47, {2-[1-Benzyl-3-(naphthalene-1-sulfonyl)-1H-indazol-5-yloxy]-ethyl}-ethyl-methyl-amine]
13 | 26 to 35 | CNCCOc1ccc2c(c1)c(S(=O)(=O)c1cccc3ccccc13)nn2Cc1ccccc1 [Example 48, {2-[1-Benzyl-3-(naphthalene-1-sulfonyl)-1H-indazol-5-yloxy]-ethyl}-methyl-amine]
14 | 26 to 35 | CC(C)NCCOc1ccc2c(c1)c(S(=O)(=O)c1cccc3ccccc13)nn2Cc1ccccc1 [Example 49, {2-[1-Benzyl-3-(naphthalene-1-sulfonyl)-1H-indazol-5-yloxy]-ethyl}-isopropyl-amine]
15 | 36 to 45 | CCN(CC)CCOc1ccc2c(c1)c(S(=O)(=O)c1cccc3ccccc13)nn2Cc1ccccc1 [Example 50, {2-[1-Benzyl-3-(naphthalene-1-sulfonyl)-1H-indazol-5-yloxy]-ethyl}-diethyl-amine]
16 | 11 to 25 | CN(C)CCOc1ccc2c(c1)c(S(=O)(=O)c1cccc3ccccc13)nn2Cc1ccccc1 [Example 51, {2-[1-Benzyl-3-(naphthalene-1-sulfonyl)-1H-indazol-5-yloxy]-ethyl}-dimethyl-amine]
17 | > 45 | O=S(=O)(c1cccc2ccccc12)c1nn(Cc2ccccc2)c2ccc(OCCN3CCCC3)cc12 [Example 52, 1-Benzyl-3-(naphthalene-1-sulfonyl)-5-(2-pyrrolidin-1-yl-ethoxy)-1H-indazole]
18 | 11 to 25 | CCNCCOc1ccc2c(c1)c(S(=O)(=O)c1cccc3ccccc13)nn2Cc1ccccc1 [Example 53, {2-[1-Benzyl-3-(naphthalene-1-sulfonyl)-1H-indazol-5-yloxy]-ethyl}-ethyl-amine]
19 | 11 to 25 | CN(C)CCOc1ccc2c(c1)c(S(=O)(=O)c1cccc3ccccc13)nn2Cc1cccc(Cl)c1 [Example 54, {2-[1-(3-Chloro-benzyl)-3-(naphthalene-1-sulfonyl)-1H-indazol-5-yloxy]-ethyl}-dimethyl-amine]
20 | > 45 | CCN(C)CCOc1ccc2c(c1)c(S(=O)(=O)c1cccc3ccccc13)nn2Cc1cccc(Cl)c1 [Example 55, {2-[1-(3-Chloro-benzyl)-3-(naphthalene-1-sulfonyl)-1H-indazol-5-yloxy]-ethyl}-ethyl-methyl-amine]

Row | Ki [nM] | SMILES
21 | > 45 | CCN(CC)CCOc1ccc2c(c1)c(S(=O)(=O)c1cccc3ccccc13)nn2Cc1cccc(Cl)c1 [Example 56, {2-[1-(3-Chloro-benzyl)-3-(naphthalene-1-sulfonyl)-1H-indazol-5-yloxy]-ethyl}-diethyl-amine]
22 | 36 to 45 | CC(C)NCCOc1ccc2c(c1)c(S(=O)(=O)c1cccc3ccccc13)nn2Cc1cccc(Cl)c1 [Example 57, {2-[1-(3-Chloro-benzyl)-3-(naphthalene-1-sulfonyl)-1H-indazol-5-yloxy]-ethyl}-isopropyl-amine]
23 | 26 to 35 | O=S(=O)(c1cccc2ccccc12)c1nn(Cc2cccc(Cl)c2)c2ccc(OCCN3CCCC3)cc12 [Example 58, 1-(3-Chloro-benzyl)-3-(naphthalene-1-sulfonyl)-5-(2-pyrrolidin-1-yl-ethoxy)-1H-indazole]
24 | > 45 | CNCCOc1ccc2c(c1)c(S(=O)(=O)c1cccc3ccccc13)nn2Cc1cccc(Cl)c1 [Example 59, {2-[1-(3-Chloro-benzyl)-3-(naphthalene-1-sulfonyl)-1H-indazol-5-yloxy]-ethyl}-methyl-amine]
25 | 11 to 25 | CCNCCOc1ccc2c(c1)c(S(=O)(=O)c1cccc3ccccc13)nn2Cc1cccc(Cl)c1 [Example 60, {2-[1-(3-Chloro-benzyl)-3-(naphthalene-1-sulfonyl)-1H-indazol-5-yloxy]-ethyl}-ethyl-amine]
26 | 0.01 to 10 | CCNCCCCOc1ccc2[nH]nc(S(=O)(=O)c3cccc4ccccc34)c2c1 [Example 63]
27 | 0.01 to 10 | CN(C)CCCCOc1ccc2[nH]nc(S(=O)(=O)c3cccc4ccccc34)c2c1 [Example 64]
28 | 0.01 to 10 | CCCN(C)CCCCOc1ccc2[nH]nc(S(=O)(=O)c3cccc4ccccc34)c2c1 [Example 65]
29 | 0.01 to 10 | CCN(CC)CCCCOc1ccc2[nH]nc(S(=O)(=O)c3cccc4ccccc34)c2c1 [Example 66]
30 | 0.01 to 10 | O=S(=O)(c1cccc2ccccc12)c1n[nH]c2ccc(OCCCCN3CCCC3)cc12 [Example 67]
31 | 0.01 to 10 | NCCCCOc1ccc2[nH]nc(S(=O)(=O)c3cccc4ccccc34)c2c1 [Example 68, (4-{[3-(1-naphthylsulfonyl)-1H-indazol-5-yl]oxy}butyl)amine]
32 | 26 to 35 | NCCOc1cccc2c(S(=O)(=O)c3cccc4ccccc34)nn(Cc3cccc(Cl)c3)c12 [Example 69, (2-{[1-(3-Chlorobenzyl)-3-(1-naphthylsulfonyl)-1-H-indazol-7-yl]oxy}ethyl) amine]
33 | 11 to 25 | CNCCOc1cccc2c(S(=O)(=O)c3cccc4ccccc34)nn(Cc3cccc(Cl)c3)c12 [Example 70, (2-{[1-(3-Chlorobenzyl)-3-(1-naphthylsulfonyl)-1-H-indazol-7-yl]oxy}ethyl) methylamine]
34 | 0.01 to 10 | NCCOc1cccc2c(S(=O)(=O)c3cccc4ccccc34)n[nH]c12 [Example 76, (2-{[3-(1-naphthylsulfonyl)-1-H-indazol-7-yl]oxy}ethyl)amine]
35 | 0.01 to 10 | CNCCOc1cccc2c(S(=O)(=O)c3cccc4ccccc34)n[nH]c12 [Example 77]
36 | 0.01 to 10 | CN(C)CCOc1cccc2c(S(=O)(=O)c3cccc4ccccc34)n[nH]c12 [Example 78]
37 | 11 to 25 | CCNCCOc1cccc2c(S(=O)(=O)c3cccc4ccccc34)n[nH]c12 [Example 79]
38 | 0.01 to 10 | O=S(=O)(c1cccc2ccccc12)c1n[nH]c2c(OCCN3CCCCC3)cccc12 [Example 80]
39 | 0.01 to 10 | O=S(=O)(c1cccc2ccccc12)c1n[nH]c2c(OCCN3CCCC3)cccc12 [Example 81]
40 | 11 to 25 | CNCCOc1cccc2c(S(=O)(=O)c3ccccc3)nn(Cc3cccc(Cl)c3)c12 [Example 82]

Row | SMILES | Ki [nM]
41 | O=S(=O)(c1cccc2ccccc12)c1n[nH]c2ccc(OCCCCN3CCCCC3)cc12 [Example 61, 3-(1-naphthylsulfonyl)-5-(4-piperidin-1-ylbutoxy)-1H-indazole] | 0.01 to 10
